This is an account of results in patent US6787570B2, “Substituted N-cycloalkyl-N-benzyl aminoalcohol compounds useful for inhibiting cholesteryl ester transfer protein activity” (Pfizer, Inc., priority 1999, dated 2004).

The assay deals with T1, Human recombinant CETP (Homo sapiens, UniProt P11597).
T1 construct: made in house; host or cells: CHO cells (serum-free conditioned medium)
T1 sequence (P11597 18-493): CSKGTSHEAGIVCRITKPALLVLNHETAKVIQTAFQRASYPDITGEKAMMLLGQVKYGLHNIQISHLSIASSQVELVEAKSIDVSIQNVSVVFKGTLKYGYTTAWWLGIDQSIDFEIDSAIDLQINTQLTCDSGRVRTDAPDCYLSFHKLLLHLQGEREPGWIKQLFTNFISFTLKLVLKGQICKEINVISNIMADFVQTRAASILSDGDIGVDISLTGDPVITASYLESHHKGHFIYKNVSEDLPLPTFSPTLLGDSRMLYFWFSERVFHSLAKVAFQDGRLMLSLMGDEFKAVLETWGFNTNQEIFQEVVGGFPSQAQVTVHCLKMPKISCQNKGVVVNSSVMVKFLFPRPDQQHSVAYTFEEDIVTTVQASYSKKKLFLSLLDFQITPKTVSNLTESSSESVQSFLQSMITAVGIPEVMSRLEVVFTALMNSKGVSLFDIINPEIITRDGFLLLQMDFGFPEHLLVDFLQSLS
Kind of assay: Assay of CETP Inhibition Using Purified Components (Reconstituted Buffer Assay). The assay is classed as biochemical. Conditions: transfer of [3H]CE from HDL to LDL, 2 hours at 37° C. How it is done:
Assay of CETP Inhibition Using Purified Components (Reconstituted Buffer Assay)
The ability of compounds to inhibit CETP activity was assessed using an in vitro assay that measured the rate of transfer of radiolabeled cholesteryl ester ([^3H]CE) from HDL donor particles to LDL acceptor particles. Details of the assay are provided by Glenn, K. C. et al. (Glenn and Melton, “Quantification of Cholesteryl Ester Transfer Protein (CETP): A) CETP Activity and B) Immunochemical Assay of CETP Protein,” Meth. Enzymol., 263, 339-351 (1996)). Human recombinant CETP can be obtained from the serum-free conditioned medium of CHO cells transfected with a cDNA for CETP and purified as described by Wang, S. et al. (J. Biol. Chem. 267, 17487-17490 (1992)). To measure CETP activity, [^3H]CE-labeled-HDL, LDL, CETP and assay buffer (50 mM tris(hydroxymethyl)aminomethane, pH 7.4; 150 mM sodium chloride; 2 mM ethylenediamine-tetraacetic acid (EDTA); 1% bovine serum albumin) were incubated in a final volume of 200 μL, for 2 hours at 37° C. in 96 well plates. Inhibitors were included in the assay by diluting from a 10 mM DMSO stock solution into 16% (v/v) aqueous DMSO so that the final concentration of inhibitor was 800 μM. The inhibitors were then diluted 1:1 with CETP in assay buffer, and then 25 μL of that solution was mixed with 175 μL of lipoprotein pool for assay. Following incubation, LDL was differentially precipitated by the addition of 50 μL of 1% (w/v) dextran sulfate/0.5 M magnesium chloride, mixed by vortex, and incubated at room temperature for 10 minutes. A potion of the solution (200 μL) was transferred to a filter plate (Millipore). After filtration, the radioactivity present in the precipitated LDL was measured by liquid scintillation counting. […] The rate of [^3H]CE transfer using this assay was linear with respect to time and CETP concentration, up to 25-30% of [^3H]CE transferred.
The potency of test compounds was determined by performing the above described assay in the presence of varying concentrations of the test compounds and determining the concentration required for 50% inhibition of transfer of [3H]CE from HDL to LDL. This value was defined as the IC50. The IC50 values determined from this assay are accurate when the IC50 is greater than 10 nM.

Consider `CC1CCC(N(Cc2cccc(C(F)(F)F)c2)CC(O)C(F)(F)F)CC1` (stereo not drawn) [Example 1, 3-[(4-methylcyclohexyl)[[(3-trifluoromethyl)phenyl]methyl]amino]-1,1,1-trifluoro-2-propanol], for which the IC50 (in general, the concentration that inhibits the measured activity by half) stood at 15 µM.

For `OC(CN(Cc1cccc(OC(F)(F)F)c1)C1CC1)C(F)(F)F` (stereo not drawn) [Example 4], the IC50 turned out to be 20 µM.

For `CC(C)N(Cc1cccc(OC(F)(F)F)c1)CC(O)C(F)(F)F` (stereo not drawn) [Example 5], the IC50 was more than 100 µM.

Consider `CCCN(Cc1cccc(OC(F)(F)F)c1)CC(O)C(F)(F)F` (stereo not drawn) [Example 6], for which the IC50 is more than 100 µM.

Consider `CC(C)=CCN(CC(O)C(F)(F)F)c1cccc(OC(F)(F)F)c1` (stereo not drawn) [Example 8], for which the IC50 stood at 45 µM.

As to `CCCCCC=CCN(CC(O)C(F)(F)F)c1cccc(OC(F)(F)F)c1` (stereo not drawn) [Example 9], the IC50 stood at 18 µM.

As for `C#CCN(CC(O)C(F)(F)F)c1cccc(OC(F)(F)F)c1` (stereo not drawn) [Example 10], the IC50 is 50 µM.

Regarding `CC(C)CCN(CC(O)C(F)(F)F)c1cccc(OC(F)(F)F)c1` (stereo not drawn) [Example 11], the IC50 is 45 µM.

Turning to `C=C(CN(CC(O)C(F)(F)F)c1cccc(OC(F)(F)F)c1)C(=O)OC` (stereo not drawn) [Example 12], the IC50 is 60 µM.

For the molecule `COC(=O)C=CCN(CC(O)C(F)(F)F)c1cccc(OC(F)(F)F)c1` (stereo not drawn) [Example 13], the half-maximal inhibitory concentration (IC50) is 80 µM.

Take `COCC=CCN(CC(O)C(F)(F)F)c1cccc(OC(F)(F)F)c1` (stereo not drawn) [Example 14]: the half-maximal inhibitory concentration (IC50) turned out to be 55 µM.

`OC(CN(Cc1ccccc1)CC(O)C(F)(F)F)C(F)(F)F` (stereo not drawn) [Example 15, 1,1′-[(Phenylmethyl)imino]bis[3,3,3-trifluoro-2-propanol]]: the IC50 was more than 100 µM.

In the case of `OC(CN(Cc1cccc(C(F)(F)F)c1)CC(O)C(F)(F)F)C(F)(F)F` (stereo not drawn) [Example 16], the half-inhibitory concentration (IC50) amounted to 15 µM.

As to `OC(CN(Cc1ccc(OC(F)(F)F)cc1)CC(O)C(F)(F)F)C(F)(F)F` (stereo not drawn) [Example 17], the IC50 worked out at 60 µM.

On to `CCc1cc(Oc2cccc(N(CC3CCCCC3)CC(O)C(F)(F)F)c2)ccc1Cl` (stereo not drawn) [Example 18, 3-[[3-(4-chloro-3-ethylphenoxy)phenyl][3-cyclohexylmethyl]amino]-1,1,1-trifluoro-2-propanol], for which the IC50 came out at 11 µM.
